# Results: patent US20210290598A1, “MEDICAMENT USEFUL FOR CARDIOVASCULAR DISEASE” (NATIONAL UNIVERSITY CORPORATION OKAYAMA UNIVERSITY, priority 2018, published 2021)
# Assays:
# Type in all cases: in vivo, rat
# [1] = system: phosphorylated endothelial nitric oxide synthase (phospho-eNOS); assay: Expression level of phospho-eNOS in isolated aortas by Western blotting; settings: 12 weeks dosing
# Method: (§1) Drug efficacy was evaluated on Dahl salt-sensitive rats (Dahl-Iwai S, 7 weeks old, Japan SLC, Inc.) fed on a 8% salt-containing HFD (High Fat Diet: 29.4% fat content, CLEA Japan, Inc.) (4 groups in total: (1) control group, (2) pemafibrate (0.5 mg/kg/day) single-agent administration group, (3) pitavastatin (0.3 mg/kg/day) single-agent administration group, and (4) pemafibrate (0.5 mg/kg/day)+pitavastatin (0.3 mg/kg/day) combined administration group, with 10 animals for each group). Twelve weeks after the start of administration, the animals were euthanized after measuring their blood pressure, and the weight of the isolated hearts and the endothelial function of the isolated thoracic aortas were measured with a Magnus apparatus. The measurement with the Magnus apparatus was performed according to the standard method. […] Then, acetylcholine (10^−9 to 10^−5 M) was added cumulatively, and the relaxation response was measured. Finally, […] was obtained with 100 μM papaverine, and the relaxation rate was evaluated. When measuring with the Magnus apparatus, the blood vessels of normal rats were also evaluated in addition to the four groups, and were used as a control group. In addition, the expression level of phosphorylated endothelial nitric oxide synthase (phospho-eNOS) was evaluated by Western blotting according to the standard method, using the isolated aortas.
# Dahl salt-sensitive rats [2] = assay: Blood pressure in Dahl salt-sensitive rats on high-salt high-fat diet; settings: for mean blood pressure: 12 weeks after start, mean±standard deviation, pemafibrate 0.5 mg/kg/day, pitavastatin 0.3 mg/kg/day, salt-containing HFD, control 193.6±6.6; for change in blood pressure compared with control group: 12 weeks, analysis of variance/Bonferroni
# Method: (§2) Drug efficacy was evaluated on Dahl salt-sensitive rats (Dahl-Iwai S, 7 weeks old, Japan SLC, Inc.) fed on a 8% salt-containing HFD (High Fat Diet: 29.4% fat content, CLEA Japan, Inc.) (4 groups in total: (1) control group, (2) pemafibrate (0.5 mg/kg/day) single-agent administration group, (3) pitavastatin (0.3 mg/kg/day) single-agent administration group, and (4) pemafibrate (0.5 mg/kg/day)+pitavastatin (0.3 mg/kg/day) combined administration group, with 10 animals for each group). Twelve weeks after the start of administration, the animals were euthanized after measuring their blood pressure, and the weight of the isolated hearts and the endothelial function of the isolated thoracic aortas were measured with a Magnus apparatus. The measurement with the Magnus apparatus was performed according to the standard method. That is, a ring preparation of the isolated thoracic aorta was prepared, suspended in a Magnus tube in Krebs-Henseleit solution, loaded with a tension of 1 g, and constricted with 0.3 μM phenylephrine. Then, acetylcholine (10^−9 to 10^−5 M) was added cumulatively, and the relaxation response was measured. Finally, […] was obtained with 100 μM papaverine, and the relaxation rate was evaluated. When measuring with the Magnus apparatus, the blood vessels of normal rats were also evaluated in addition to the four groups, and were used as a control group. In addition, the expression level of phosphorylated endothelial nitric oxide synthase (phospho-eNOS) was evaluated by Western blotting according to the standard method, using the isolated aortas.
# Dahl salt-sensitive rats [3] = assay: Weight of isolated hearts of Dahl salt-sensitive rats on high-salt high-fat diet; settings: for heart weight: 12 weeks after start, mean±standard deviation, pemafibrate 0.5 mg/kg/day, pitavastatin 0.3 mg/kg/day, salt-containing HFD, control 1.74±0.1; for change in heart weight compared with control group: 12 weeks, analysis of variance/Bonferroni
# Method: as §2
# [4] = system: isolated thoracic aorta of Dahl salt-sensitive rats; assay: Endothelial function of isolated thoracic aorta, Magnus apparatus, acetylcholine relaxation response; settings: 12 weeks dosing; aorta ring constricted with 0.3 μM phenylephrine, cumulative acetylcholine; mixed effect model, Bonferroni
# Method: as §1
SMILES,expression level of phospho-eNOS compared to control group [1],mean blood pressure (Dahl salt-sensitive rats [2]) [mmHg],change in blood pressure compared with control group (Dahl salt-sensitive rats [2]),heart weight (Dahl salt-sensitive rats [3]) [g],change in heart weight compared with control group (Dahl salt-sensitive rats [3]),vasodilatory responsiveness as a whole compared with control group [4]
"CC[C@@H](Oc1cccc(CN(CCCOc2ccc(OC)cc2)c2nc3ccccc3o2)c1)C(=O)O [pemafibrate, (2R)-2-[3-({1,3-benzoxazol-2-yl[3-(4-methoxyphenoxy)propyl]amino}methyl)phenoxy]butanoic acid]",tendency to increase,192.6±8.3,no change was observed,1.48 ± 0.1,significantly lower than that of the control,showed a trend toward improvement in vasodilatory responsiveness
O=C(O)C[C@H](O)C[C@H](O)/C=C/c1c(C2CC2)nc2ccccc2c1-c1ccc(F)cc1 [pitavastatin],tendency to increase,196.9±8.4,no change was observed,1.76 ± 0.2,no change compared to the control,showed a trend toward improvement in vasodilatory responsiveness
